For orientation: Emax means the greatest response seen or fitted, relative to the assay's reference.

Data on 12 compounds can be found in patent publication US7880007B2, “Bicyclic substituted phenyl piperidine modulators of muscarinic receptors” (Vertex Pharmaceuticals Incorporated, priority 2004, dated 2011).

SMILES strings stand for the structures.

Holding throughout (assay type): cell-based
The target in assay [1] is T1, M3 muscarinic receptor (Homo sapiens, UniProt P20309).
T1 construct: expressed in transfected cells; host or cells: CHO (M3-CHO)
Put plainly: Functional mobilization of intracellular calcium (FLIPR), M3-CHO cells. Conditions: for Emax: 100% efficacy = maximum response obtained with the Carbachol control; for M3 Activity: M3-CHO cells, calcium mobilization (FLIPR). In a few lines:
(§1)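 CHO cells expressing human M1–M4 receptors loaded with Fluo-3 AM or Calcium 3 dye (1 mM probenecid, pH 7.4); 0.5% DMSO final. Agonist mode: compound added directly; antagonist mode: 15 min pre-incubation or co-application, then carbachol at EC80. Fluorescence read 60 s on FLIPR; efficacy relative to carbachol maximum.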
Background: Calcium assays in cells follow changes in intracellular calcium, usually with a dye or a luminescent sensor.

Assay [2] deals with T2, M1 muscarinic receptor (Homo sapiens, UniProt P11229).
T2 construct: expressed in transfected cells; host or cells: CHO (M1-CHO)
T2 sequence (P11229 1-460): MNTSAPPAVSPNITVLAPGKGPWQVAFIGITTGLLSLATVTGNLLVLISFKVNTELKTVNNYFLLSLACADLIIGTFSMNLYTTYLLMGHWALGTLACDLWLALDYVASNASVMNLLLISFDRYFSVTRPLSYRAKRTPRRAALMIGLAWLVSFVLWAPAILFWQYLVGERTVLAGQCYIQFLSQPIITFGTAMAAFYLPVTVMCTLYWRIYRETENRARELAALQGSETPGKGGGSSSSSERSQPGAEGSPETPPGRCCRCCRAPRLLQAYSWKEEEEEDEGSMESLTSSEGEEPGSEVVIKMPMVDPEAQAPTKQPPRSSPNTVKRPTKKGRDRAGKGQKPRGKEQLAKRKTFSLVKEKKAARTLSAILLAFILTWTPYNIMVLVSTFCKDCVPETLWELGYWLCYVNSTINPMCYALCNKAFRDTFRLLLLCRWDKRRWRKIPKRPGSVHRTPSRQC
Put plainly: Functional mobilization of intracellular calcium (FLIPR), M1-CHO cells. The following applies: for Emax: 100% efficacy = maximum response obtained with the Carbachol control; for M1 Activity: M1-CHO cells, calcium mobilization (FLIPR). In a few lines:
as §1

The target of assay [3] is T3, M2 muscarinic receptor (Homo sapiens, UniProt P08172).
T3 construct: expressed in transfected cells; host or cells: CHO (M2-CHO)
T3 sequence (P08172 1-466): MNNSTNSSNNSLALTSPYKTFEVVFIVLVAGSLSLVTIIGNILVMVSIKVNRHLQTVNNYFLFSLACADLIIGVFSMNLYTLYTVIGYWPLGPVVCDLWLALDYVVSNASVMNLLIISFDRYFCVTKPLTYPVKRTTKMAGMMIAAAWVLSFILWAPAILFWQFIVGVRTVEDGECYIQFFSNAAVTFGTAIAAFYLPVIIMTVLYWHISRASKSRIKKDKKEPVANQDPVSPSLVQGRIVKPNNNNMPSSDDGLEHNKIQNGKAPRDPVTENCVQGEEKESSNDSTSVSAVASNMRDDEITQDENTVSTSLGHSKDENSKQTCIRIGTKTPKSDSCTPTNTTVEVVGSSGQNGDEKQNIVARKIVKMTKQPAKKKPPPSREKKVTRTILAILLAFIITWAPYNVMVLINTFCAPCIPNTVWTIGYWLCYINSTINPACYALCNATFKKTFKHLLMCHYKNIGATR
As to the kind of experiment: Functional mobilization of intracellular calcium (FLIPR), M2-CHO cells. The following applies: for Emax: 100% efficacy = maximum response obtained with the Carbachol control; for M2 Activity: M2-CHO cells, calcium mobilization (FLIPR). In a few lines: as §1

Assay [4] deals with T4, M4 muscarinic receptor (Homo sapiens, UniProt P08173).
T4 construct: expressed in transfected cells; host or cells: CHO (M4-CHO)
T4 sequence (P08173 1-479): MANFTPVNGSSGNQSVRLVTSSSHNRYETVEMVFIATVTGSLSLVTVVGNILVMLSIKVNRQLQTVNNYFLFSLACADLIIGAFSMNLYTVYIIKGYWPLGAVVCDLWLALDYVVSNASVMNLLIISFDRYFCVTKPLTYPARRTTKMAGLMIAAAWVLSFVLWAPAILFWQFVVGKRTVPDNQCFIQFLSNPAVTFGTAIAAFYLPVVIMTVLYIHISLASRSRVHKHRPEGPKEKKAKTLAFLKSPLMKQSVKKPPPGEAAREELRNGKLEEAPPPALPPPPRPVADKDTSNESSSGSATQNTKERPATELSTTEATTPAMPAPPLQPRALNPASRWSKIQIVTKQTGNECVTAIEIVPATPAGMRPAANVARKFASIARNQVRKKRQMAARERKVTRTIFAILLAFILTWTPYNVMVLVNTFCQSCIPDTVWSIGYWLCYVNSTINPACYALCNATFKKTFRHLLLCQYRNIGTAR
Put plainly: Functional mobilization of intracellular calcium (FLIPR), M4-CHO cells. The following applies: for Emax: 100% efficacy = maximum response obtained with the Carbachol control; for M4 Activity: M4-CHO cells, calcium mobilization (FLIPR). In a few lines: as §1

T1 sequence (P20309 whole entry): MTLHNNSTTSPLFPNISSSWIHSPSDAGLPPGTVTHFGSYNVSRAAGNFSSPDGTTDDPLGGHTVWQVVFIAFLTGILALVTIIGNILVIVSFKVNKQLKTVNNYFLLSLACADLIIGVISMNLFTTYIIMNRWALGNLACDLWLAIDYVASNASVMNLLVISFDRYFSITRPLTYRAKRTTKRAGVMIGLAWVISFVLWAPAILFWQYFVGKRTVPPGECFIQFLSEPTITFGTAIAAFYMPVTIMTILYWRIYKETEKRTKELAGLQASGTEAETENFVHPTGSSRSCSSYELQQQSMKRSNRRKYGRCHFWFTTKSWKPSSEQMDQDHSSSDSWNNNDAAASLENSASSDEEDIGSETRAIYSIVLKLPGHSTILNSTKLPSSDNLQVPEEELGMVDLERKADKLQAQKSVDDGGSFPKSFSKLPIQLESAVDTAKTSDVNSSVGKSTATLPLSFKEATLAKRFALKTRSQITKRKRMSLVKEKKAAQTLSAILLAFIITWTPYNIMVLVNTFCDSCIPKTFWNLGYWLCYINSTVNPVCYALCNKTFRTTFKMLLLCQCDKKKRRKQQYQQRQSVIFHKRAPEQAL

Consider `COc1ccc(Cl)cc1C1CCN(C2CC3CCC2C3)CC1` (stereo not drawn) [Compound 209, 1-(bicyclo[2.2.1]heptan-2-yl)-4-(5-chloro-2-methoxyphenyl)-piperidine], for which, in assay [1], the Emax was less than 25% and the “M3 Activity” value was “+ (activity was measured to be greater than 5.0 μM)”. Also, in assay [2], the Emax is 25 to 100% and the “M1 Activity” value was “++ (activity was measured to be from 1.0 μM to 5.0 μM)”. In addition, in assay [3], the Emax lay within 25 to 100% and the “M2 Activity” value is given as “++ (activity was measured to be from 1.0 μM to 5.0 μM)”. In assay [4], the Emax was in the range of 25 to 100% and the “M4 Activity” value is “+++ (activity was measured to be less than 1.0 μM)”.

Regarding `COc1ccccc1C1CCN(C2CC[C@@H](C)C2)CC1` (stereo partly drawn) [Compound 210], in assay [1], the Emax was less than 25% and the “M3 Activity” value was “+ (activity was measured to be greater than 5.0 μM)”. In assay [2], the maximal response (Emax) lay within 25 to 100% and the “M1 Activity” value is reported as “+ (activity was measured to be greater than 5.0 μM)”. For the same compound, in assay [3], the Emax is less than 25% and the “M2 Activity” value is “+ (activity was measured to be greater than 5.0 μM)”. Further, in assay [4], the Emax is 25 to 100% and the “M4 Activity” value is listed as “+++ (activity was measured to be less than 1.0 μM)”.

Consider `CCOC(=O)N1CCC(N2CCC(c3ccccc3OC)CC2)CC1` [Compound 211], for which, in assay [1], the Emax fell in the range of 25 to 100% and the “M3 Activity” value is “+ (activity was measured to be greater than 5.0 μM)”. For the same compound, in assay [2], the Emax is 25 to 100% and the “M1 Activity” value is “+++ (activity was measured to be less than 1.0 μM)”. In assay [3], the maximal effect (Emax) was in the range of 25 to 100% and the “M2 Activity” value is listed as “+++ (activity was measured to be less than 1.0 μM)”. In assay [4], the Emax was more than 100% and the “M4 Activity” value is listed as “+++ (activity was measured to be less than 1.0 μM)”.

Turning to `Cc1ccc(F)cc1C1CCN([C@H]2C[C@H]3CC[C@H]2C3)CC1` [Compound 212], in assay [1], the Emax was less than 25% and the “M3 Activity” value is given as “+ (activity was measured to be greater than 5.0 μM)”. Besides, in assay [2], the Emax was in the range of 25 to 100% and the “M1 Activity” value was “+ (activity was measured to be greater than 5.0 μM)”. In addition, in assay [3], the Emax was less than 25% and the “M2 Activity” value is listed as “+ (activity was measured to be greater than 5.0 μM)”. In addition, in assay [4], the maximum response (Emax) fell in the range of 25 to 100% and the “M4 Activity” value is listed as “+++ (activity was measured to be less than 1.0 μM)”.

Turning to `COc1ccc(Cl)cc1C1(F)CCN(C[C@H]2C[C@H]3C=C[C@H]2C3)CC1` [Compound 213], in assay [1], the Emax was less than 25% and the “M3 Activity” value was “+ (activity was measured to be greater than 5.0 μM)”. In assay [2], the Emax fell in the range of 25 to 100% and the “M1 Activity” value was “+ (activity was measured to be greater than 5.0 μM)”. In addition, in assay [3], the Emax fell in the range of 25 to 100% and the “M2 Activity” value is given as “++ (activity was measured to be from 1.0 μM to 5.0 μM)”. In assay [4], the Emax was in the range of 25 to 100% and the “M4 Activity” value is given as “+++ (activity was measured to be less than 1.0 μM)”.

Consider `COc1ccc(-c2ccc(S(=O)(=O)C(C)C)cc2)cc1C1CCN([C@H]2C[C@H]3CC[C@H]2C3)CC1` [Compound 214], for which, in assay [1], the Emax was less than 25% and the “M3 Activity” value was “+ (activity was measured to be greater than 5.0 μM)”. Besides, in assay [2], the Emax lay within 25 to 100% and the “M1 Activity” value is “+ (activity was measured to be greater than 5.0 μM)”. Further, in assay [3], the Emax was less than 25% and the “M2 Activity” value is on record as “+ (activity was measured to be greater than 5.0 μM)”. In assay [4], the maximum response (Emax) lay in the range of 25 to 100% and the “M4 Activity” value is “++ (activity was measured to be from 1.0 μM to 5.0 μM)”.

On to `CCOC(=O)N1C2CCC1CC(N1CCC(c3cc(-c4ccc(S(=O)(=O)N5CCCC5)cc4)ccc3OC)CC1)C2` (stereo not drawn) [Compound 215], for which, in assay [1], the Emax is less than 25% and the “M3 Activity” value is “+ (activity was measured to be greater than 5.0 μM)”. In assay [2], the Emax fell in the range of 25 to 100% and the “M1 Activity” value is reported as “+ (activity was measured to be greater than 5.0 μM)”. In assay [3], the Emax was less than 25% and the “M2 Activity” value is “+ (activity was measured to be greater than 5.0 μM)”. For the same compound, in assay [4], the maximum response (Emax) was less than 25% and the “M4 Activity” value is reported as “+ (activity was measured to be greater than 5.0 μM)”.

For the compound `COc1ccc(-c2ccccc2F)cc1C1CCN([C@H]2C[C@H]3CC[C@H]2C3)CC1` [Compound 216], in assay [1], the Emax is less than 25% and the “M3 Activity” value is “+ (activity was measured to be greater than 5.0 μM)”. For the same compound, in assay [2], the Emax is less than 25% and the “M1 Activity” value was “+ (activity was measured to be greater than 5.0 μM)”. In assay [3], the Emax was less than 25% and the “M2 Activity” value is reported as “+ (activity was measured to be greater than 5.0 μM)”. For the same compound, in assay [4], the maximum response (Emax) lay in the range of 25 to 100% and the “M4 Activity” value was “+ (activity was measured to be greater than 5.0 μM)”.

Consider `CCOC(=O)N1CCC(CN2CCC(c3cccc4c3OCO4)CC2)CC1` [Compound 217], for which, in assay [1], the Emax was less than 25% and the “M3 Activity” value is given as “++ (activity was measured to be from 1.0 μM to 5.0 μM)”. Besides, in assay [2], the Emax was 25 to 100% and the “M1 Activity” value is recorded as “+++ (activity was measured to be less than 1.0 μM)”. In assay [3], the Emax is less than 25% and the “M2 Activity” value is reported as “+ (activity was measured to be greater than 5.0 μM)”. In assay [4], the Emax fell in the range of 25 to 100% and the “M4 Activity” value was “+++ (activity was measured to be less than 1.0 μM)”.

On to `CCOC(=O)N1C2CCC1CC(N1CCC(F)(c3cc(Cl)ccc3OC)CC1)C2` (stereo not drawn) [Compound 219, 4-(5-chloro-2-methoxyphenyl)-4-fluoropiperidine tropane ethyl carbamate], for which, in assay [1], the Emax is less than 25% and the “M3 Activity” value is reported as “+ (activity was measured to be greater than 5.0 μM)”. In assay [2], the maximal response (Emax) fell in the range of 25 to 100% and the “M1 Activity” value was “+++ (activity was measured to be less than 1.0 μM)”. Further, in assay [3], the maximal response (Emax) is less than 25% and the “M2 Activity” value is listed as “+ (activity was measured to be greater than 5.0 μM)”. Further, in assay [4], the Emax fell in the range of 25 to 100% and the “M4 Activity” value was “+++ (activity was measured to be less than 1.0 μM)”.

As to `COc1ccccc1C1CCN(C2CCC3CCC2C3)CC1` (stereo not drawn) [Compound 221], in assay [1], the Emax was less than 25% and the “M3 Activity” value is recorded as “+ (activity was measured to be greater than 5.0 μM)”. In assay [2], the Emax lay in the range of 25 to 100% and the “M1 Activity” value is recorded as “+ (activity was measured to be greater than 5.0 μM)”. Besides, in assay [3], the Emax is less than 25% and the “M2 Activity” value is recorded as “+ (activity was measured to be greater than 5.0 μM)”. For the same compound, in assay [4], the Emax lay in the range of 25 to 100% and the “M4 Activity” value was “+++ (activity was measured to be less than 1.0 μM)”.

Consider `COc1ccc(C#CCC(C)C)cc1C1CCN([C@H]2C[C@H]3CC[C@H]2C3)CC1` [Compound 223], for which, in assay [1], the Emax is less than 25% and the “M3 Activity” value is listed as “+ (activity was measured to be greater than 5.0 μM)”. Besides, in assay [2], the Emax was less than 25% and the “M1 Activity” value is “+ (activity was measured to be greater than 5.0 μM)”. Besides, in assay [3], the Emax was less than 25% and the “M2 Activity” value is given as “+ (activity was measured to be greater than 5.0 μM)”. Besides, in assay [4], the Emax lay in the range of 25 to 100% and the “M4 Activity” value is “+ (activity was measured to be greater than 5.0 μM)”.
